Assay results published in patent US9676756B2 (PORTOLA PHARMACEUTICALS, INC., priority 2012, dated 2017).

How the values were obtained:
Assay type in all cases: biochemical
[1] = target: T1, full length active recombinant SYK enzyme (Homo sapiens, UniProt P43405); assay: SYK tyrosine phosphorylation activity, LANCE TR-FRET kinase assay; conditions: 1 nM SYK, 100 μM ATP, 1 hour at room temperature
T1 construct: full length active recombinant SYK enzyme (Millipore, CA); purchased Millipore
Method: Potency of candidate molecules for inhibiting Syk tyrosine phosphorylation activity is assessed by measuring the ability of a test compound to inhibit Syk-mediated tyrosine phosphorylation of a Syk-specific substrate.
SYK tyrosine phosphorylation activity is measured using the LANCE™ Technology developed by Perkin Elmer Life and Analytical Sciences (Boston, Mass.). LANCE™ refers to homogeneous time resolved fluorometry applications using techniques such as time-resolved fluorescence resonance energy transfer assay (TR-FRET) (see generally for procedures in Perkin Elmer Application Note—How to Optimize a Tyrosine Kinase Assay Using Time Resolved Fluorescence-Based LANCE Detection, wwww.perkinelmer.com/lifesciences). The assay principle involves detection of a phosphorylated substrate using energy transfer from a phosphospecific europium-labeled antibody to streptavidin-allophycocyanin as an acceptor.
To test the ability of candidate molecules to inhibit SYK tyrosine phosphorylation activity, molecules are reconstituted in 30% DMSO and serially diluted 1:3 with the final dilution containing DMSO in the absence of the candidate molecule. The final DMSO concentration in the assay is 3%. Kinase assays are performed as a two part reaction. The first reaction is a kinase reaction that comprises a candidate molecule, full length active recombinant SYK enzyme (Millipore, CA) and biotin-labeled SYK-specific substrate biotin-[…]-OH. The second reaction involves termination of the kinase reaction and the simultaneous addition of the detection reagents-europium-labeled anti-phosphotyrosine reagent (Eu-W1024-PY100, Perkin Elmer, Boston, Mass.) and Streptavidin-Allophycocyanin detection reagent (SA-APC, Prozyme, CA). The kinase reaction is performed in a black U-bottom 96-well microtitre plate. The final reaction volume is 50 μL and contains a final concentration of 1 nM active SYK enzyme, 550 nM SYK-substrate, and 100 μM ATP diluted in a buffer containing 50 mM Tris pH 7.5, 5 mM MgCl2, and 1 mM DTT. The reaction is allowed to proceed for 1 hour at room temperature. The stop buffer contains 100 mM Tris pH 7.5, 300 mM NaCl2, 20 mM EDTA, 0.02% Brij35, and 0.5% BSA. The detection reagents are added to the reaction mixture at the following dilutions—1:500 for Eu-W1024-PY100 and 1:250 for SA-APC. The kinase reaction is terminated by the addition of 50 μL stop buffer containing the detection reagents. The detection is allowed to proceed for 1 hr at room temperature. Detection of the phosphorolated substrate in the absence and presence of inhibitors is measured in the TR-FRET instrument, Analyst HT (Molecular Probes, Sunnyvale, Calif.) and the condition for measurements are set up using CriterionHost Release 2.0 (Molecular Probes, Sunnyvale, Calif.). The settings used are a follows: excitation 360 nm, emission 665-7.5 nm, beam splitter 350 nm 50/50, flash 100 pulses, delay 60 us, integration 400 us, z-height 2 mm. Inhibition of SYK-tyrosine kinase activity is calculated as the maximum response observed in the presence of inhibitor, compared to that in the absence of inhibitor. IC50s are derived by non-linear regression analysis.

JAK1 = target: T2, JAK1 (Homo sapiens, UniProt P23458); assay: JAK tyrosine phosphorylation activity, Z'-LYTE FRET kinase assay; conditions: catalytic domain recombinant kinase, Tyr6 peptide
T2 construct: 5 μl of catalytic domain recombinant Kinase enzyme+Tyr peptide substrate (Invitrogen, CA); purchased Invitrogen
T2 sequence (P23458 875-1153 limits assumed): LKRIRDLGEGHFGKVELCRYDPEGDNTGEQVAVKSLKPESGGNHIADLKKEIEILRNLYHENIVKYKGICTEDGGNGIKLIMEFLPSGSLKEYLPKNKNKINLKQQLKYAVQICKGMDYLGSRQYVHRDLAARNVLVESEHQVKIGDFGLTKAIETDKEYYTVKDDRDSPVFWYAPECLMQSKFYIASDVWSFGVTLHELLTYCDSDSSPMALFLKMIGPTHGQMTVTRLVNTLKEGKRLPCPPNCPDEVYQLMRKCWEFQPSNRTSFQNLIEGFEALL
Method: (§1) JAK and SYK tyrosine phosphorylation activity is measured using the Z'-LYTE™ Technology developed by Invitrogen Corporation (Carlsbad, Calif.). For JAK1, JAK2 and JAK3 the Z'-LYTE™ Kinase Assay Kit-Tyr6 Peptide (part number PV4122) was used. The Z'-LYTE™ biochemical assay employs a fluorescence resonance energy transfer (FRET) coupled-enzyme format and is based on the differential sensitivity of phosphorylated and non-phosphorylated peptides to proteolitic cleavage. The assay uses a synthetic peptide substrate that is labelled with a donor fluorophore (coumarin) and an acceptor fluorophore (fluorescein) that make up a FRET pair. In the primary reaction (the Kinase Reaction), the kinase transfers the γ-phosphate of ATP to a single tyrosine residue on the substrate, while the presence of a kinase inhibitor in the primary reaction suppresses phosphorylation. In the secondary reaction (the Development Reaction), a site-specific protease (the Development Reagent) is added. The development buffer quenches the Kinase Reaction, while the protease recognizes and cleaves non-phosphorylated Z'-LYTE™ peptide substrate. Cleavage disrupts FRET between the donor and acceptor fluorophores on the non-phosphorylated substrate, while uncleaved, phosphorylated substrate maintains FRET.
(§2) To test the ability of candidate molecules to inhibit JAK tyrosine phosphorylation activity, molecules are reconstituted in 100% DMSO and serially diluted 1:10 in polypropylene v-bottom microtiter plates. The candidate molecules are then diluted 1:25 into kinase buffer and 2.5 μl transferred into duplicate wells of a 384 well low volume black microtiter assay plate (Corning, USA). The final DMSO concentration in the assay is 1%. The kinase reaction contains 2.5 μl of a candidate molecule, 5 μl of catalytic domain recombinant Kinase enzyme+Tyr peptide substrate (Invitrogen, CA) and 2.5 μl ATP (Invitrogen, CA). The kinase reaction is allowed to precede for 1 hour at room temperature. The protease reaction is initiated by the addition of 5 μl Development Reagent (Invitrogen, CA). After 1 hour incubation at room temperature the fluorescence is measured using a FlexStation plate reader (Molecular Devices, Sunnyvale, Calif.). The reader settings used are as follows: Fluorescence mode, endpoint, top read, excitation 400 nm, emission 445 nm and 520 nm. Auto Cutoff 435 nm and 515 nm, PMT sensitivity high, 6 reads per well. Inhibition of JAK activity is calculated as the percent phosphorylation of substrate in the presence of inhibitor compared to the percent phosphorylation of substrate in the absence of inhibitor. IC50's were derived using Xlfit 4.3 (IDBS, UK), 4 parameter logistic model 205: Y=(A+((B−A)/(1+((C/x)^D)))).

JAK2 = target: T3, JAK2 (Homo sapiens, UniProt O60674); assay: as above; conditions: catalytic domain recombinant kinase, Tyr6 peptide
T3 construct: 5 μl of catalytic domain recombinant Kinase enzyme+Tyr peptide substrate (Invitrogen, CA); purchased Invitrogen
T3 sequence (O60674 849-1124 limits assumed): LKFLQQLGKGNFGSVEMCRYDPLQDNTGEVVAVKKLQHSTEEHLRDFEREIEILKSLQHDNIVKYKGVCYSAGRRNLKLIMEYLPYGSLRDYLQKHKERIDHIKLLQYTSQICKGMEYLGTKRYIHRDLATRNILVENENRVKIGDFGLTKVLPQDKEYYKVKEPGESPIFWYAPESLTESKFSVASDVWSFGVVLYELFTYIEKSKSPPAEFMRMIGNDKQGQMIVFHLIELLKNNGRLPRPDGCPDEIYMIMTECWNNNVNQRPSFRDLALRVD
Method: as §1, §2

JAK3 = target: T4, JAK3 (Homo sapiens, UniProt P52333); assay: as above; conditions: catalytic domain recombinant kinase, Tyr6 peptide
T4 construct: 5 μl of catalytic domain recombinant Kinase enzyme+Tyr peptide substrate (Invitrogen, CA); purchased Invitrogen
T4 sequence (P52333 822-1111 limits assumed): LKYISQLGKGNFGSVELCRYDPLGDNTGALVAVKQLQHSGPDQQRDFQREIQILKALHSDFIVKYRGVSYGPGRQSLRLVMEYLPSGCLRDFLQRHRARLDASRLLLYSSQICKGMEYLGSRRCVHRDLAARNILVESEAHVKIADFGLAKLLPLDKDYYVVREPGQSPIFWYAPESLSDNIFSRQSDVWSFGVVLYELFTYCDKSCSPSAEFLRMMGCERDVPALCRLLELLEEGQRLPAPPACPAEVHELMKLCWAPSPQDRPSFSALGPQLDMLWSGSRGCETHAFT
Method: as §1, §2

Compound | IC50 [1] | JAK1 IC50 potency class (JAK1) | JAK2 IC50 potency class (JAK2) | JAK3 IC50 potency class (JAK3) | IC50 (JAK1; read-out: JAK1 IC50 % Inhibition) [nM]
CS(=O)(=O)N1CCN(c2ccc(Nc3ncc(C(N)=O)c(NC4CC4)n3)cc2F)CC1 [Compound 41, 4-(cyclopropylamino)-2-((3-fluoro-4-(4-(methylsulfonyl)piperazin-1-yl)phenyl)amino)pyrimidine-5-carboxamide] | +++ (0.10 uM<IC50<0.01 uM) | +++ (0.10 uM<IC50<0.01 uM) | ++++ (0.01 uM<IC50<0.001 uM) | ++++ (0.01 uM<IC50<0.001 uM) | –
CCS(=O)(=O)N1CCN(c2ccc(Nc3ncc(C(N)=O)c(NC4CC4)n3)cc2F)CC1 [Compound 42, 4-(cyclopropylamino)-2-((4-(4-(ethylsulfonyl)piperazin-1-yl)-3-fluorophenyl)amino)pyrimidine-5-carboxamide] | +++ (0.10 uM<IC50<0.01 uM) | +++ (0.10 uM<IC50<0.01 uM) | ++++ (0.01 uM<IC50<0.001 uM) | ++++ (0.01 uM<IC50<0.001 uM) | –
CCS(=O)(=O)N1CCN(c2ccc(Nc3ncc(C(N)=O)c(NC4CC4)n3)cc2Cl)CC1 [Compound 43, 2-((3-chloro-4-(4-(ethylsulfonyl)piperazin-1-yl)phenyl)amino)-4-(cyclopropylamino)pyrimidine-5-carboxamide] | +++ (0.10 uM<IC50<0.01 uM) | ++ (1.0 uM<IC50<0.10 uM) | +++ (0.10 uM<IC50<0.01 uM) | +++ (0.10 uM<IC50<0.01 uM) | –
CS(=O)(=O)N1CCN(c2ccc(Nc3ncc(C(N)=O)c(NC4CC4)n3)cc2C#N)CC1 [Compound 47, 2-((3-cyano-4-(4-(methylsulfonyl)piperazin-1-yl)phenyl)amino)-4-(cyclopropylamino)pyrimidine-5-carboxamide] | ++ (1.0 uM<IC50<0.10 uM) | +++ (0.10 uM<IC50<0.01 uM) | ++++ (0.01 uM<IC50<0.001 uM) | ++++ (0.01 uM<IC50<0.001 uM) | –
CCS(=O)(=O)N1CCN(c2ccc(Nc3ncc(C(N)=O)c(NC4CC4)n3)cc2C#N)CC1 [Compound 48, 2-((3-cyano-4-(4-(ethylsulfonyl)piperazin-1-yl)phenyl)amino)-4-(cyclopropylamino)pyrimidine-5-carboxamide] | ++ (1.0 uM<IC50<0.10 uM) | ++ (1.0 uM<IC50<0.10 uM) | +++ (0.10 uM<IC50<0.01 uM) | ++++ (0.01 uM<IC50<0.001 uM) | –
CS(=O)(=O)N1CCN(c2c(F)cc(Nc3ncc(C(N)=O)c(NC4CC4)n3)cc2F)CC1 [Compound 49, 4-(cyclopropylamino)-2-((3,5-difluoro-4-(4-(methylsulfonyl)piperazin-1-yl)phenyl)amino)pyrimidine-5-carboxamide] | ++ (1.0 uM<IC50<0.10 uM) | ++ (1.0 uM<IC50<0.10 uM) | +++ (0.10 uM<IC50<0.01 uM) | +++ (0.10 uM<IC50<0.01 uM) | –
CCS(=O)(=O)N1CCN(c2c(F)cc(Nc3ncc(C(N)=O)c(NC4CC4)n3)cc2F)CC1 [Compound 50, 4-(cyclopropylamino)-2-((4-(4-(ethylsulfonyl)piperazin-1-yl)-3,5-difluorophenyl)amino)pyrimidine-5-carboxamide] | ++ (1.0 uM<IC50<0.10 uM) | – | ++ (1.0 uM<IC50<0.10 uM) | ++ (1.0 uM<IC50<0.10 uM) | > 1000
COc1cc(Nc2ncc(C(N)=O)c(NC3CC3)n2)ccc1N1CCC(C(=O)N(C)C)CC1 [Compound 51, 4-(cyclopropylamino)-2-((4-(4-(dimethylcarbamoyl)piperidin-1-yl)-3-methoxyphenyl)amino)pyrimidine-5-carboxamide] | ++ (1.0 uM<IC50<0.10 uM) | +++ (0.10 uM<IC50<0.01 uM) | ++++ (0.01 uM<IC50<0.001 uM) | ++++ (0.01 uM<IC50<0.001 uM) | –
CN(C)C(=O)C1CCN(c2ccc(Nc3ncc(C(N)=O)c(NC4CC4)n3)cc2F)CC1 [Compound 52, 4-(cyclopropylamino)-2-((4-(4-(dimethylcarbamoyl)piperidin-1-yl)-3-fluorophenyl)amino)pyrimidine-5-carboxamide] | +++ (0.10 uM<IC50<0.01 uM) | +++ (0.10 uM<IC50<0.01 uM) | ++++ (0.01 uM<IC50<0.001 uM) | ++++ (0.01 uM<IC50<0.001 uM) | –
CN(C)C(=O)C1CCN(c2ccc(Nc3ncc(C(N)=O)c(NC4CC4)n3)cc2Cl)CC1 [Compound 53, 2-((3-chloro-4-(4-(dimethylcarbamoyl)piperidin-1-yl)phenyl)amino)-4-(cyclopropylamino)pyrimidine-5-carboxamide] | +++ (0.10 uM<IC50<0.01 uM) | +++ (0.10 uM<IC50<0.01 uM) | ++++ (0.01 uM<IC50<0.001 uM) | ++++ (0.01 uM<IC50<0.001 uM) | –
NC(=O)c1cnc(Nc2ccc(N3CCOCC3)c(F)c2)nc1NC1CC1 [Compound 54, 4-(cyclopropylamino)-2-((3-fluoro-4-morpholinophenyl)amino)pyrimidine-5-carboxamide] | +++ (0.10 uM<IC50<0.01 uM) | +++ (0.10 uM<IC50<0.01 uM) | ++++ (0.01 uM<IC50<0.001 uM) | ++++ (0.01 uM<IC50<0.001 uM) | –
